Measured values as given in patent US11213511B2, “Composition for preventing or treating SARS coronavirus 2 infection disease” (priority 2020, dated 2022).
“And” between values parts separate entries of the source, which are not always exact repeats. Equal values may be shown once. Read-outs that look alike come from different tables or passages of the source.

Assays:
SARS CoV-2 (NCCP-43326) [1] = type: cell-based
SARS CoV-2 (NCCP-43326) [2] = assay: Observation of cell morphology according to medicament treatment; type: cell-based; settings: 10 to 20 μM, VERO cell, FIG. 3
SARS-CoV-2 3CL protease = SARS-CoV-2 3CL protease (Severe acute respiratory syndrome coronavirus 2, UniProt P0DTD1); assay: biochemical; settings: for inhibition at 30 µM: read-out: activity of 3CL protease inhibited
[3] = molecular target: T1, ACE2 and SARS-CoV-2 Spike S1 protein binding (UniProt P0DTC2+Q9BYF1); assay: biochemical
T1 construct: Spike S1, Fc fusion, Avi-tag, Biotin Labeled (SARS-CoV-2) (BPS Bioscience, 100679); Fc fusion; Avi-tag (biotin labeled); His-Tag (Eu-labeled); purchased BPS Bioscience 100705 (ACE2); 100679 (Spike S1)
T1 sequence (Q9BYF1 18-740, one chain of several): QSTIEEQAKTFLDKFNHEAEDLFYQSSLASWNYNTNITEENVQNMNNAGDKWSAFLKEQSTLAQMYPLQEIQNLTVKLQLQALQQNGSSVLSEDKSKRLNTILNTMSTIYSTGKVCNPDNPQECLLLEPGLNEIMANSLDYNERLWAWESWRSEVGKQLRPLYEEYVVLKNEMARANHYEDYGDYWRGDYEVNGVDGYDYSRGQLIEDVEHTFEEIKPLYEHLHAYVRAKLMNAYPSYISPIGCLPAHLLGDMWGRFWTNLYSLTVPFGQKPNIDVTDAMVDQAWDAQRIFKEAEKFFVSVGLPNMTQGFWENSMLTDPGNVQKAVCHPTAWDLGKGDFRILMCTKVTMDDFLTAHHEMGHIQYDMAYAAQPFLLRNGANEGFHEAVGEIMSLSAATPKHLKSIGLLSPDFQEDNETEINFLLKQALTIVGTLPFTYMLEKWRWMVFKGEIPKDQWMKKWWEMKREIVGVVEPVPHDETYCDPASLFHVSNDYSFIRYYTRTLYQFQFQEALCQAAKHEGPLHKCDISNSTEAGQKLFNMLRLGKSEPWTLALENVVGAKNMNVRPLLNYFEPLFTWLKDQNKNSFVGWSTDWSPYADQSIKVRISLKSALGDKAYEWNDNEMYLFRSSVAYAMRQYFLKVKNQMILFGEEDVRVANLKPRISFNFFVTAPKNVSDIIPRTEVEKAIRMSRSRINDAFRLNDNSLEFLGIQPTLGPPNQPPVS

[4] = system: severe acute respiratory syndrome coronavirus 2; assay: Medicament efficacy of Sulfinpyrazone in SARS coronavirus 2 infected animal model (Example 7); type: in vivo, Syrian Hamster; settings: 50 MPK (50 mg/kg/day), PO twice daily, 4 days of continuous administration, vs virus alone infected group
VERO cell = settings: for Viability: 72 hours, MTT; for cell survival: 10 to 20 μM
[5] = system: severe acute respiratory syndrome coronavirus 2; parameters: species or system Syrian Hamster; settings: hamster, in vivo

O=C1C(CC[S+]([O-])c2ccccc2)C(=O)N(c2ccccc2)N1c1ccccc1 (racemic) [Sulfinpyrazone, 1,2-diphenyl-4-[2-(phenylsulfinyl)ethyl]pyrazolidine-3,5-dione]
CPE Reduction (%) (SARS CoV-2 (NCCP-43326) [1]): 33.1 ± 7.0% and 40.7 ± 8.0% | change in cell morphology of virus-infected cells (SARS CoV-2 (NCCP-43326) [2]): morphology change was small | activity at 0.001 µM (SARS-CoV-2 3CL protease): 96% | activity at 0.003 µM (SARS-CoV-2 3CL protease): 104% | activity at 0.01 µM (SARS-CoV-2 3CL protease): 100% | activity at 0.03 µM (SARS-CoV-2 3CL protease): 103% | activity at 0.1 µM (SARS-CoV-2 3CL protease): 103% | activity at 0.3 µM (SARS-CoV-2 3CL protease): 102% | activity at 1 µM (SARS-CoV-2 3CL protease): 99% | activity at 3 µM (SARS-CoV-2 3CL protease): 92% | activity at 10 µM (SARS-CoV-2 3CL protease): 90% | activity at 30 µM (SARS-CoV-2 3CL protease): 82% | % Activity (SARS-CoV-2 3CL protease; 0.001 µM): 101% | % Activity (SARS-CoV-2 3CL protease; 0.003 µM): 101% | % Activity (SARS-CoV-2 3CL protease; 0.01 µM): 101% | % Activity (SARS-CoV-2 3CL protease; 0.3 µM): 94% | % Activity (SARS-CoV-2 3CL protease; 1 µM): 98% | % Activity (SARS-CoV-2 3CL protease; 3 µM): 95% | % Activity (SARS-CoV-2 3CL protease; 10 µM): 95% | % Activity (SARS-CoV-2 3CL protease; 30 µM): 80% | inhibition at 30 µM (SARS-CoV-2 3CL protease): ~20% | TR-FRET ratio [3]: 0.96 and 0.97 and 0.95 and 0.93 and 0.94 | activity at 0.002 µM [3]: 96% | activity at 0.005 µM [3]: 97% | activity at 0.014 µM [3]: 100% | activity at 0.041 µM [3]: 98% | activity at 0.123 µM [3]: 100% | activity at 0.37 µM [3]: 99% | activity at 1.111 µM [3]: 101% | activity at 3.333 µM [3]: 98% | activity at 10 µM [3]: 100% | activity at 30 µM [3]: 99% | efficacy in inhibiting the binding of ACE2 and Spike S1 proteins [3]: no efficacy | % Activity ([3]; 0.002 µM): 95% | % Activity ([3]; 10 µM): 95% | Gross pneumonia lesion amelioration percentage (%) [4]: 15.6% | Viability (VERO cell; 10 μM): 108.3 ± 0.4% | Viability (VERO cell; 20 μM): 99.6 ± 7.3% | cell survival (VERO cell): excellent cell survival

CCC(CC)COC(=O)[C@H](C)N[P@](=O)(OC[C@H]1O[C@@](C#N)(c2ccc3c(N)ncnn23)[C@H](O)[C@@H]1O)Oc1ccccc1 [Remdesivir]
gross cure rate [5]: 44.3%

COc1cc(C(=O)NS(=O)(=O)c2ccccc2C)ccc1Cc1cn(C)c2ccc(NC(=O)OC3CCCC3)cc12 [Zafirlukast, cyclopentyl3-{2-methoxy-4-[(o-tolylsulfonyl)carbamoyl]benzyl}-1-methyl-1H-indol-5-ylcarbamate]
CPE Reduction (%) (SARS CoV-2 (NCCP-43326) [1]): 60.1 ± 7.1% and 75.6 ± 3.9% | change in cell morphology of virus-infected cells (SARS CoV-2 (NCCP-43326) [2]): morphology change was small | activity at 0.001 µM (SARS-CoV-2 3CL protease): 100% | activity at 0.003 µM (SARS-CoV-2 3CL protease): 95% | activity at 0.01 µM (SARS-CoV-2 3CL protease): 94% | activity at 0.03 µM (SARS-CoV-2 3CL protease): 97% | activity at 0.1 µM (SARS-CoV-2 3CL protease): 95% | activity at 0.3 µM (SARS-CoV-2 3CL protease): 95% | activity at 1 µM (SARS-CoV-2 3CL protease): 90% | activity at 3 µM (SARS-CoV-2 3CL protease): 89% | activity at 10 µM (SARS-CoV-2 3CL protease): 78% | activity at 30 µM (SARS-CoV-2 3CL protease): 52% | % Activity (SARS-CoV-2 3CL protease; 0.003 µM): 98% | % Activity (SARS-CoV-2 3CL protease; 0.01 µM): 103% | % Activity (SARS-CoV-2 3CL protease; 0.03 µM): 99% | % Activity (SARS-CoV-2 3CL protease; 0.3 µM): 98% | % Activity (SARS-CoV-2 3CL protease; 3 µM): 87% | % Activity (SARS-CoV-2 3CL protease; 10 µM): 77% | % Activity (SARS-CoV-2 3CL protease; 30 µM): 55% | inhibition at 30 µM (SARS-CoV-2 3CL protease): ≥ 45% | activity at 0.002 µM [3]: 91% | activity at 0.005 µM [3]: 96% | activity at 0.014 µM [3]: 92% | activity at 0.041 µM [3]: 99% | activity at 0.123 µM [3]: 97% | activity at 0.37 µM [3]: 101% | activity at 1.111 µM [3]: 93% | activity at 3.333 µM [3]: 102% | activity at 10 µM [3]: 96% | activity at 30 µM [3]: 95% | efficacy in inhibiting the binding of ACE2 and Spike S1 proteins [3]: no efficacy | % Activity ([3]; 0.005 µM): 94% | % Activity ([3]; 10 µM): 98% | amelioration effects in the gross lung lesion [5]: very excellent amelioration effects | amelioration in bilateral pneumonia, pulmonary edema, and pulmonary bleeding aspects ([5]; po): excellent amelioration | treatment effect compared to the control medicament Remdesivir ([5]; po): superior treatment effect | Viability (VERO cell; 10 μM): 109.7 ± 2.8% | Viability (VERO cell; 20 μM): 89.3 ± 0.7% | cell survival (VERO cell): excellent cell survival
